Results from PMC9179341, “Design of New Potent and Selective Thiophene-Based KV1.3 Inhibitors and Their Potential for Anticancer Activity” (Cancers, 2022).
“Also recorded” adds a separate entry of the source. Each block holds one compound with its values, some of them ahead of it.

Experiments:
[1] = system: Colo-357 tumor spheroids; assay: Apoptosis (caspase 3/7 activity) in Colo-357 tumor spheroids; type: cell-based; conditions: with 8.9 µM cycloheximide, up to 100 µM
Method: (§1) Cell lines Panc-1 (ACC 783) and Colo-357 (CVCL_0221) were obtained through the validated collection of the pHioniC consortium (MSC-ITN 813834). Both cell lines were grown in RPMI1640, supplemented with 1 mM sodium pyruvate and 1% Glutamax (all Gibco Thermo-Fisher, Waltham, MA USA) 10%FBS (BioChrom, Berlin, Germany), at 5% CO2 and 37 °C in a humidified atmosphere.
(§2) Spheroids were cultured in round bottom ultra-low attachment 96-well plates (Corning). The optimal seeding densities were empirically determined (8000 cells/well for Colo-357 or 10,000 cells/well for Panc-1 spheroids. The cells were suspended in 2% Matrigel (Corning), centrifuged at 1000× g for 10 min and the spheroids were allowed to form in the incubator. Once the spheroids were formed, the treatments indicated together with 8.9 µM cycloheximide (as apoptosis sensitizer) were added and apoptosis was determined by live imaging in the Incucyte system in real time for approximately 60 h using Caspase-3/7 green reagent (Sartorius) as a reporter of apoptosis, which crosses the cell membrane and is cleaved by the activated Caspase-3/7, resulting in the fluorescent staining of nuclear DNA. Apoptosis on Panc-1 tumor spheroids is presented as integrated green fluorescence in the whole spheroid.

[2] = Turbidimetric solubility assay; type: physicochemical
Method: For the phosphate-buffered saline, we dissolved 2.38 g of disodium hydrogen phosphate dodecahydrate, 0.19 g of potassium dihydrogen phosphate, and 8.0 g of sodium chloride in water and diluted it to 1000 mL with the same solvent. Then we adjusted the pH to 7.4. The stock DMSO solutions of the compounds were prepared at concentrations of 50 mM, 20 mM, 10 mM, and 1 mM. The final solutions (500 µM, 200 µM, 100 µM, and 10 µM) were prepared by adding 2 µL of the stock DMSO solution to 198 µL of phosphate-buffered saline. The absorbance (area scan) was measured at 620 nm for sample volume of 200 µL and the appearance of the solutions was checked by visual inspection.

[3] = system: other KV1.x family channels or more distantly related channels; design: method as in PMID 32199306; conditions: cited from earlier work
[4] = system: Panc-1 cell line; design: method as in PMID 29034212; conditions: Panc-1; 20 µM; cited from earlier work
[5] = system: Colo-357; design: method as in PMID 29034212; conditions: read-out: EC50 cell death; cited from earlier work
[6] = system: KV1.1, KV1.2, KV1.5 and KV3.1; design: method as in PMID 19104661; conditions: cited from earlier work
[7] = system: cancer cells (human SAOS2, mouse B16F10 melanoma, and human B-CLL); conditions: PAP-1 20 µM, clofazimine 1 or 10 µM, with MDRi cyclosporine H (4 µM) and probenecid (100 µM); cited from earlier work
[8] = system: pancreatic ductal adenocarcinoma (PDAC) cell lines; conditions: cited from earlier work
[9] = system: orthotopic PDAC xenotransplantation model; conditions: orthotopic PDAC xenotransplantation model in SCID beige mice; cited from earlier work
[10] = target: KV1.3 (Homo sapiens, UniProt P22001); design: method as in PMID 32199306; conditions: applied ex vivo to Kv1.3 expressing oocytes; read-out: IC50 KV1.3 (previous work); cited from earlier work
Sequence of KV1.3 (P22001 whole entry): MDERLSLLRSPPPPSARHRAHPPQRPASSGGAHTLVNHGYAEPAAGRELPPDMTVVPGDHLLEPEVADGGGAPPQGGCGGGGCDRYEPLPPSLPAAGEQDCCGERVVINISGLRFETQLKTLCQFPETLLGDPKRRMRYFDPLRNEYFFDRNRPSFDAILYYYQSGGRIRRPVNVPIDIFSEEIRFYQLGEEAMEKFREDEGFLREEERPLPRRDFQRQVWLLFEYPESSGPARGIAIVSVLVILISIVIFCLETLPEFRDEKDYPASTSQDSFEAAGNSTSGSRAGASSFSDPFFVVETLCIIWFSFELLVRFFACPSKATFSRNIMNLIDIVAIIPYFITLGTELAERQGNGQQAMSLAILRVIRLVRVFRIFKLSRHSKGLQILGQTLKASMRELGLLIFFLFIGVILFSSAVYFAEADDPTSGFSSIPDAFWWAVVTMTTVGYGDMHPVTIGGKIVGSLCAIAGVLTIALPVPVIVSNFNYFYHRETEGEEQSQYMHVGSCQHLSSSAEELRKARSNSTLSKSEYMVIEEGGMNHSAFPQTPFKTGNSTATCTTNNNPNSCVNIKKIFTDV

[11] = target: KV1.1 (Rattus norvegicus, UniProt P10499); assay: Selectivity, HiClamp Xenopus laevis heterologous expression system, KV1.1; type: cell-based; conditions: 10 µM; HiClamp, oocytes
Sequence of KV1.1 (P10499 whole entry): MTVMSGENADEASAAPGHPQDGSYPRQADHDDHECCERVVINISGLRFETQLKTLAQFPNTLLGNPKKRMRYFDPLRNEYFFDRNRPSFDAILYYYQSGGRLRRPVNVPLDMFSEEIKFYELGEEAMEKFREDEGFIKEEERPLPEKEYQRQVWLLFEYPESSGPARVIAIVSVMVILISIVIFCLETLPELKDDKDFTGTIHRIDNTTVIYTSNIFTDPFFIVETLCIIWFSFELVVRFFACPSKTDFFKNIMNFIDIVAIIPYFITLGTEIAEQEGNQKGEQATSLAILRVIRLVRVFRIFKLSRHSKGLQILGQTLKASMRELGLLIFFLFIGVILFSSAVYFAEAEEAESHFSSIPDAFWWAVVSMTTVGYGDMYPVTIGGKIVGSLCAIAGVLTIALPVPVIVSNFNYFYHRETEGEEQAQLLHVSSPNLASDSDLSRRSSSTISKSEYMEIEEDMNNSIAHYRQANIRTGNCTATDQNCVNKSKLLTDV
Method: (§3) Ion channels (Kv1.x, Kv2.1, Kv4.2, Kv10.1) were expressed in Xenopus laevis oocytes by linearization of the plasmids and subsequent in vitro transcription using a commercial T7 or SP6 mMESSAGE mMACHINE transcription kit (Ambion, Carlsbad, California, USA). Defolliculated Xenopus oocytes were then injected with 20–50 nL of the cRNA at a concentration of 1 ng/nL using a micro-injector (Drummond Scientific1, Broomall, PA, USA). The oocytes were incubated in a solution containing (in mM): NaCl, 96; KCl, 2; CaCl2, 1.8; MgCl2, 2 and HEPES, 5 (pH 7.5), supplemented with 50 mg/L gentamycin sulfate and 90 mg/L theophylline. After ex vivo translation, the ion channels were correctly inserted in the cell membrane of the oocytes.
(§4) Two-electrode voltage-clamp recordings were performed at room temperature (18–22 °C) using a Geneclamp 500 amplifier (Molecular Devices, San Jose, CA, USA) and pClamp data acquisition (Axon Instruments, Union City, CA, USA) and using an integrated digital TEVC amplifier controlled by HiClamp, an automated Voltage-Clamp Screening System (Multi Channel Systems MCS GmbH, Reutlingen, Germany). Whole-cell currents from oocytes were recorded 1–4 days after injection. The bath solution composition was ND96 (in mM): NaCl, 96; KCl, 2; CaCl2, 1.8; MgCl2, 2 and HEPES, 5 (pH 7.5). Voltage and current electrodes were filled with a 3 M solution of KCl in H2O. Resistances of both electrodes were kept between 0.5 and 1.5 MΩ. The elicited Kv1.x, Kv2.1, Kv4.2 and Kv10.1 currents were filtered at 0.5 kHz and sampled at 2 kHz using a four-pole low-pass Bessel filter. Leak subtraction was performed using a P/4 protocol.
(§5) For the electrophysiological analysis of the compounds, a number of protocols were applied from a holding potential of −90 mV. Currents for Kv1.x, Kv2.1, Kv4.2 and Kv10.1 were evoked by 1 s depolarizing pulses either to 0 mV or to a range of voltage steps between −80 mV and +40 mV. For the analysis of the data, only the inhibition at the 0 mV step was used. The concentration dependency of all compounds was assessed by measuring the current inhibition in the presence of increasing compound concentrations. […] From this stock solution, adequate dilutions with a maximum of 0.5% DMSO were made for testing.
(§6) All electrophysiological data (Figure S1) are presented as means ± S.E.M of n ≥ three independent experiments unless otherwise indicated. All data were analyzed using pClamp Clampfit 10.4 (Molecular Devices, Downingtown, PA, USA), OriginPro 9 (Originlab, Northampton, MA, USA), GraphPad Prism 8 software (GraphPad Software, Inc., San Diego, CA, USA) and DataMining (Multi Channel Systems MCS GmbH, Reutlingen, Germany). The Dunnett test and one-way ANOVA were performed to calculate the significance of the induced inhibition compared to the control.

[12] = target: KV1.2 (Homo sapiens, UniProt P16389); assay: Selectivity, HiClamp Xenopus laevis heterologous expression system, KV1.2; type: cell-based; conditions: 10 µM; HiClamp, oocytes
Sequence of KV1.2 (P16389 whole entry): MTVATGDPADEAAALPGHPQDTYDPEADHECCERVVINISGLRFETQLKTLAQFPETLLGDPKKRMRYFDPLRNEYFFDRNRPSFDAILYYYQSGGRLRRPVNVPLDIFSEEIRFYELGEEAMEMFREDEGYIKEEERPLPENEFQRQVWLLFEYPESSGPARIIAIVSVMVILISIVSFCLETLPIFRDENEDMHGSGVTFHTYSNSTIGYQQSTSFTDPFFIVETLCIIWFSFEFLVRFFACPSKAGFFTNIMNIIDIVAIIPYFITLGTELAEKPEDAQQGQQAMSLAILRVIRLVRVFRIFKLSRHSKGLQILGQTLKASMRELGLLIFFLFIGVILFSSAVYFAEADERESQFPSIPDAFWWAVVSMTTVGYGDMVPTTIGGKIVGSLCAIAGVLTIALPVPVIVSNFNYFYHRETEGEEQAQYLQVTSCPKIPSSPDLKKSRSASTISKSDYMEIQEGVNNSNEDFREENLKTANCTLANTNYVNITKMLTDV
Method: as §3, §4, §5, §6

[13] = target: KV1.4 (Homo sapiens, UniProt P22459); assay: Selectivity, HiClamp Xenopus laevis heterologous expression system, KV1.4; type: cell-based; conditions: 10 µM; HiClamp, oocytes
Sequence of KV1.4 (P22459 whole entry): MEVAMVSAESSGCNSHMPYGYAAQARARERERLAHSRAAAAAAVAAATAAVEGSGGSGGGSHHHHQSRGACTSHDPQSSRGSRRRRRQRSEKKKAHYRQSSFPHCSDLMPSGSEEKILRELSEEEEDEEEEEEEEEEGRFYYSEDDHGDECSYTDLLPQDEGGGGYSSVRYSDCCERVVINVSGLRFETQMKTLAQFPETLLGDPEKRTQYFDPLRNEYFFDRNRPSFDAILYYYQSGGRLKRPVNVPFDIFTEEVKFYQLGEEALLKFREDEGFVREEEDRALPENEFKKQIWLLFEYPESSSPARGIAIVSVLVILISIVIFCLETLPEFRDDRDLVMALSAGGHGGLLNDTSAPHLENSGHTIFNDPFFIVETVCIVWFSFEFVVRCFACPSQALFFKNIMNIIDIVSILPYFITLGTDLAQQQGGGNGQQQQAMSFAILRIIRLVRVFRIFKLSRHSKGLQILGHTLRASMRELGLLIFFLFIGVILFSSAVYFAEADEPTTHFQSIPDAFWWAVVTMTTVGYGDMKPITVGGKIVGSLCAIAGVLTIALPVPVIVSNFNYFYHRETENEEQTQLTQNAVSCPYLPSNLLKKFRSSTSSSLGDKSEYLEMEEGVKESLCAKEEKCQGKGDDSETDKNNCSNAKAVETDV
Method: as §3
as §4, with “Resistances of both electrodes were kept between 0.5 and 1.5 MΩ. The elicited Kv1.x, Kv2.1, Kv4.2 and Kv10.1 currents were filtered at 0.5 kHz and sampled at 2 kHz using a four-pole low-pass Bessel filter. Leak subtraction was performed using a P/4 protocol.” left out
(§7) For the electrophysiological analysis of the compounds, a number of protocols were applied from a holding potential of −90 mV. […] The concentration dependency of all compounds was assessed by measuring the current inhibition in the presence of increasing compound concentrations. […]
as §6, with “The Dunnett test and one-way ANOVA were performed to calculate the significance of the induced inhibition compared to the control.” left out

[14] = target: KV1.5 (Homo sapiens, UniProt P22460); assay: Selectivity, HiClamp Xenopus laevis heterologous expression system, KV1.5; type: cell-based; conditions: 10 µM; HiClamp, oocytes
Sequence of KV1.5 (P22460 whole entry): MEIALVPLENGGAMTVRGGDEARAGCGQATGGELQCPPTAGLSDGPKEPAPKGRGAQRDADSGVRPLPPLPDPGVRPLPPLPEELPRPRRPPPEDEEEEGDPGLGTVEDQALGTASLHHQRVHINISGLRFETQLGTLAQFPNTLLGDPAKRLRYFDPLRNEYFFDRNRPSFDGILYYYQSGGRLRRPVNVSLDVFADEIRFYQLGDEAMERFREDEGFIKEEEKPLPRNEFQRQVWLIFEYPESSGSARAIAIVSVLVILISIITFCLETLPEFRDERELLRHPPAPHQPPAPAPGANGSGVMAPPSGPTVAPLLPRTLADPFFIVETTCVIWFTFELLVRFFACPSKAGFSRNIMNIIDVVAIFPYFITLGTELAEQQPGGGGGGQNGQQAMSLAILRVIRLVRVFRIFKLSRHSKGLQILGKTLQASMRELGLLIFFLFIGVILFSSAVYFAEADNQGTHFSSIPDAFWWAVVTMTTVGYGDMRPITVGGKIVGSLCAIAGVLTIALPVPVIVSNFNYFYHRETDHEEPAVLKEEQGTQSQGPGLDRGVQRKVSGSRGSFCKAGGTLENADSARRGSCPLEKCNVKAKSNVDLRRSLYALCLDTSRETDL
Method: as §3, §4, §5, §6

[15] = target: KV1.6 (Homo sapiens, UniProt P17658); assay: Selectivity, HiClamp Xenopus laevis heterologous expression system, KV1.6; type: cell-based; conditions: 10 µM; HiClamp, oocytes
Sequence of KV1.6 (P17658 whole entry): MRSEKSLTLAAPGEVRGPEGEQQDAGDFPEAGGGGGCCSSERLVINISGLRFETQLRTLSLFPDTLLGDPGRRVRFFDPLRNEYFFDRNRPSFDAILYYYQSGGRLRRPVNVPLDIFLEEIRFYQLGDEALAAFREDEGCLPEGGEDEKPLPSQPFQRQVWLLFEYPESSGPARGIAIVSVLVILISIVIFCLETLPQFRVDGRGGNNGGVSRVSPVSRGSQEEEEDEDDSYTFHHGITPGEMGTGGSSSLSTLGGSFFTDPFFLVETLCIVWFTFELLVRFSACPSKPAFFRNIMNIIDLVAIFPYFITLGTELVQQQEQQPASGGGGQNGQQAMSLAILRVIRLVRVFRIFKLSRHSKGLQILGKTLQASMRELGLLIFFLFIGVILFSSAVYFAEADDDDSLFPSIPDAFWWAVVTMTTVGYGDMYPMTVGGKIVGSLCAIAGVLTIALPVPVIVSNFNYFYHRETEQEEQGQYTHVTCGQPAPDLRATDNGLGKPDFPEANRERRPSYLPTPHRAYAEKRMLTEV
Method: as §3, §4, §5, §6

[16] = target: T1, KV2.1 (Homo sapiens, UniProt Q14721); assay: Selectivity, HiClamp Xenopus laevis heterologous expression system, KV2.1; type: cell-based; conditions: 10 µM; HiClamp, oocytes
T1 sequence (Q14721 1-858): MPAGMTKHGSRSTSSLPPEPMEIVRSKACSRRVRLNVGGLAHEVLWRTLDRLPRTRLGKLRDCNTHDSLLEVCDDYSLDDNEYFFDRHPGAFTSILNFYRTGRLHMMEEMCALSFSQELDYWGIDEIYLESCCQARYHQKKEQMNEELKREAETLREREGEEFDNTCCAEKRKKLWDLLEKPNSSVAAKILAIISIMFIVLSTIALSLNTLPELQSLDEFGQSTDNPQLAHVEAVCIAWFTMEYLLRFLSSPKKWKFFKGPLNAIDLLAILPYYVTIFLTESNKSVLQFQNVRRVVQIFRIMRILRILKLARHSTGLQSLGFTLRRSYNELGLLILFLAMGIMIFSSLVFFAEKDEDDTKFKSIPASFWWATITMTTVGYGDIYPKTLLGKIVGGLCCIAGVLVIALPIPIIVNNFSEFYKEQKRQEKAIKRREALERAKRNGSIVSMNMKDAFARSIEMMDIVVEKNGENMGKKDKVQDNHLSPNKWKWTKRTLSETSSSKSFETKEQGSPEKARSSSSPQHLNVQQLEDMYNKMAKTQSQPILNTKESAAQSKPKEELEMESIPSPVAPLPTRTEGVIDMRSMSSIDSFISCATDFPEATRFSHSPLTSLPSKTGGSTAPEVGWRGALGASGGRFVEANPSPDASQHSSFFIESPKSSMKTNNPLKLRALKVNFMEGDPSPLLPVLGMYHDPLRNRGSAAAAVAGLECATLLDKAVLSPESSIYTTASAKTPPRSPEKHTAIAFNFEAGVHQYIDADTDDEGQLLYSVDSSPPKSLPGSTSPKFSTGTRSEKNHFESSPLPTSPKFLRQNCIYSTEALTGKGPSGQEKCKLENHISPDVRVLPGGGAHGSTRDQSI
Method: as §3
as §4, with “Resistances of both electrodes were kept between 0.5 and 1.5 MΩ. The elicited Kv1.x, Kv2.1, Kv4.2 and Kv10.1 currents were filtered at 0.5 kHz and sampled at 2 kHz using a four-pole low-pass Bessel filter. Leak subtraction was performed using a P/4 protocol.” left out
as §7
as §6, with “The Dunnett test and one-way ANOVA were performed to calculate the significance of the induced inhibition compared to the control.” left out

[17] = target: KV4.2 (Homo sapiens, UniProt Q9NZV8); assay: Selectivity, HiClamp Xenopus laevis heterologous expression system, KV4.2; type: cell-based; conditions: 10 µM, oocytes
Sequence of KV4.2 (Q9NZV8 whole entry): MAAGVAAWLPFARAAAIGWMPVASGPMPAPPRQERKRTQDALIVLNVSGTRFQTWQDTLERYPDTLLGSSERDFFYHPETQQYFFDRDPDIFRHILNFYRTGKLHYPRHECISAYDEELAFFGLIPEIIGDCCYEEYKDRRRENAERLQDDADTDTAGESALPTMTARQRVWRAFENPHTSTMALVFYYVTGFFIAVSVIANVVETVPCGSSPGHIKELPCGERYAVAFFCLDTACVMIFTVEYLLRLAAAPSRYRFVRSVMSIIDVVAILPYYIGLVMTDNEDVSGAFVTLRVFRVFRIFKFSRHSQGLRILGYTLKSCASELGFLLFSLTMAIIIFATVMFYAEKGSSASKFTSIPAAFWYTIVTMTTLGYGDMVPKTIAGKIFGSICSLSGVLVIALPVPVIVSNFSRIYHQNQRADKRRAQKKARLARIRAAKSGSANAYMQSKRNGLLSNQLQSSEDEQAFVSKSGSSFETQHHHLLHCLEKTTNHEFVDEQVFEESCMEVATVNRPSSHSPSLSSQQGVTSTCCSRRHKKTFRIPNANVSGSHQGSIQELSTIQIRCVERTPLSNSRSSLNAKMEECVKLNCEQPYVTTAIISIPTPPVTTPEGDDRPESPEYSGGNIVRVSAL
Method: as §3, with “After ex vivo translation, the ion channels were correctly inserted in the cell membrane of the oocytes.” left out
(§8) Two-electrode voltage-clamp recordings were performed at room temperature (18–22 °C) using a Geneclamp 500 amplifier (Molecular Devices, San Jose, CA, USA) and pClamp data acquisition (Axon Instruments, Union City, CA, USA) and using an integrated digital TEVC amplifier controlled by HiClamp, an automated Voltage-Clamp Screening System (Multi Channel Systems MCS GmbH, Reutlingen, Germany). Whole-cell currents from oocytes were recorded 1–4 days after injection. […]
as §7

[18] = target: KV10.1 (Homo sapiens, UniProt O95259); assay: Selectivity, HiClamp Xenopus laevis heterologous expression system, KV10.1; type: cell-based; conditions: 10 µM; HiClamp, oocytes
Sequence of KV10.1 (O95259 whole entry): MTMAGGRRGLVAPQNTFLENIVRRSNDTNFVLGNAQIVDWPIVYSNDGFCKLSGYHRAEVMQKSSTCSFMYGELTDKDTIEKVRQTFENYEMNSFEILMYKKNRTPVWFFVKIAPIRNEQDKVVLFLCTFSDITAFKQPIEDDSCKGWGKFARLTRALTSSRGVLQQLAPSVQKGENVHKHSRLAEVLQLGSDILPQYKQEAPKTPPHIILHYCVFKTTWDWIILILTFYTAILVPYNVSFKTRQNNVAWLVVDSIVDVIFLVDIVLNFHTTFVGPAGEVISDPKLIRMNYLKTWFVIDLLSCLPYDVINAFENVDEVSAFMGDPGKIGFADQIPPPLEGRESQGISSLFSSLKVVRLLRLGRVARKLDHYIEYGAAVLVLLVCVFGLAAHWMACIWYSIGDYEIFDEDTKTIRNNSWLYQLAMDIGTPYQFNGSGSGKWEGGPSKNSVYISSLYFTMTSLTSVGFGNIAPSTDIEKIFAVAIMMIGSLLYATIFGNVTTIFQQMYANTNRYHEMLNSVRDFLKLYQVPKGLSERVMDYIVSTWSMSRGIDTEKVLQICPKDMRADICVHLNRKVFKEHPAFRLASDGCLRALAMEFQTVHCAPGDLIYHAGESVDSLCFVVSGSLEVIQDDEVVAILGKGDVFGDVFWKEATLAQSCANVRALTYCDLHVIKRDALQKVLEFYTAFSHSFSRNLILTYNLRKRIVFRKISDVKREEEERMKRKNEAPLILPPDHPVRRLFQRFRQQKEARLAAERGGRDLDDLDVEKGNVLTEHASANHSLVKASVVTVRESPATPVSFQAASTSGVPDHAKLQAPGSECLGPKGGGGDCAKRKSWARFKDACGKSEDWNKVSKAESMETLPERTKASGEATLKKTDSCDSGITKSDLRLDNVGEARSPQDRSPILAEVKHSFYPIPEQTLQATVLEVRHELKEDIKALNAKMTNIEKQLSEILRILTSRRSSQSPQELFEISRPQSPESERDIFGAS
Method: as §3, with “After ex vivo translation, the ion channels were correctly inserted in the cell membrane of the oocytes.” left out
as §8, §7

[19] = system: Panc-1 tumor spheroids; assay: Apoptosis (caspase 3/7 activity) in Panc-1 tumor spheroids; type: cell-based; conditions: with 8.9 µM cycloheximide
Method: as §1, §2

Compound: COc1ccccc1C(=O)NCC1(c2ccsc2)CCCC1 [Compound 4]
Induction of apoptosis in Colo-357 spheroids [1]: significant induction of apoptosis; also recorded: induced a significant amount of apoptosis | absorbance at 620 nm ([2]; 10 µM in PBS with 1 % final DMSO): 0 | absorbance at 620 nm ([2]; 100 µM in PBS with 1 % final DMSO): 0,035 | absorbance at 620 nm ([2]; 200 µM in PBS with 1 % final DMSO): 0,127 | absorbance at 620 nm ([2]; 500 µM in PBS with 1 % final DMSO): 0,189 | Effect on other KV1.x family channels or more distantly related channels [3]: did not affect

Compound: CC(C)/N=c1\cc2n(-c3ccc(Cl)cc3)c3ccccc3nc-2cc1Nc1ccc(Cl)cc1 [clofazimine (3), clofazimine]
cell death [4]: less than 30% | EC50 [5]: 1500 nM | Potency on KV1.3 relative to KV1.1, KV1.2, KV1.5 and KV3.1 [6]: tenfold higher potency | Induction of apoptosis in cancer cells [7]: induced mild apoptosis | EC50 apoptosis in PDAC cell lines [8]: micromolar range | Induction of apoptosis in PDAC cell lines [8]: induced significant apoptosis | Primary tumor weight [9]: significantly reduced

Compound: COc1ccccc1C(=O)NCC1(c2ccccc2)CCOCC1 [Compound 5]
IC50 [10]: 920 nM

Effect on KV1.1 channel [11]: no significant effects | Effect on KV1.2 channel [12]: no significant effects | Effect on KV1.4 channel [13]: no significant effects | Effect on KV1.5 channel [14]: no significant effects | Effect on KV1.6 channel [15]: no significant effects | Effect on KV2.1 channel [16]: no significant effects | Effect on KV4.2 channel [17]: no significant effects | Effect on KV10.1 channel [18]: no significant effects
Compound: O=c1ccc2c(OCCCCOc3ccccc3)c3ccoc3cc2o1 [PAP-1 (1), PAP-1, reference compound]
Induction of apoptosis in Panc-1 spheroids [19]: did and induce significant apoptosis | Induction of apoptosis in cancer cells [7]: induced mild apoptosis
